Assay results as given in article PMC12030277, “Is Copper-61 the New Gallium-68? Automation and Preclinical Proof-of-Concept of ^61Cu-Based Radiopharmaceuticals for Prostate Cancer Imaging” (Pharmaceuticals, 2025).

Legend:
[1] = system: LNCaP (PSMA-positive) cells; experiment: In vitro uptake assay, LNCaP cells; format: cell-based, human; settings: 0.5 nM, 37 °C, up to 2 h, later time points; % of total radioactivity per well, gamma counter; mean ± SEM, N = 2–5 in duplicate
Method: (§1) The human PCa cell lines LNCaP (PSMA-positive) (American Type Culture Collection (ATCC), CRL-1740; Manassas, VA, USA) and DU145 (PSMA-negative) (kindly provided by Dr. Carmen Jerónimo Lab at IPO-Porto) were maintained at 37 °C in a humidified incubator enriched with 5% carbon dioxide. The cells were grown in Roswell Park Memorial Institute (RPMI) 1640 medium (Sigma-Aldrich, R4130; St. Louis, MI, USA) supplemented with 0.2% (w/v) sodium bicarbonate (Sigma-Aldrich, S6297), 10% heat-inactivated fetal bovine serum (FBS; Gibco, A5256801; Grand Island, NY, USA), 1 mM sodium pyruvate (Gibco, 11360-070), and 1% antibiotic-antimycotic (Anti-Anti 100X, Gibco, 15240-062). LNCaP and DU145 cells were seeded in 12-well plates (0.3 × 10^6 cells/well/mL) 48 h before the experiments and the day before, respectively. The multiwell plates used for the LNCaP cell line were previously coated with poly-l-lysine (PLL, Innoprot; Bizcaia, Spain) for 4–6 h to prevent cell detachment during the assays. Both PSMA-positive and -negative cells were incubated with 0.5 nM of ^61Cu-radiopharmaceuticals at 37 °C for different time periods up to 2 h. […] The radioactivity of both the supernatant and cellular fraction was measured in a CRC-55tW gamma-well counter (Mirion Technologies; Atlanta, GA, USA). Cellular uptake was calculated as a percentage of the total radioactivity measured for each well. […]

[2] = system: PSMA-positive tumor xenografts (LNCaP); set-up: species or system mice; settings: mouse, in vivo
Method: Animal studies were approved by the Animal Welfare Committee of the Institute of Nuclear Sciences Applied to Health (ICNAS; ORBEA 01-2018) and the Portuguese National Authority for Animal Health (DGAV). Male athymic Swiss nude mice aged 9-12 weeks (34–36 g) were supplied by ICNAS, housed under pathogen-free conditions in individually ventilated cages with controlled temperature/humidity (22 °C/55%) environment on a 12 h light–dark cycle, and provided with food and water ad libitum. […] Tumor growth was monitored with a digital caliper and PET/MRI scans were performed when tumor xenografts reached 5–7 mm in diameter (~75–130 mm^3, as calculated by the formula Length × Width^2 × 0.5), approximately 9 weeks after inoculation.
[^61Cu]Cu-DOTAGA-PSMA-I&T (~0.37 MBq/g; ~3.56 nmol; N = 2) or [^61Cu]Cu-NODAGA-PSMA-I&T (~0.37 MBq/g; ~0.653 nmol; N = 3) in NaCl 0.9% with 10% EtOH was intravenously injected into the tail vein of anesthetized mice. […] Respiratory rate and body temperature were monitored throughout the imaging procedures (SA Instruments, Inc.; Stony Brook, NY, USA). […] For quantitative PET imaging processing, PMOD v3.6 and FUSION Tool (PMOD Technologies; Zürich, Switzerland; RRID:SCR_016547) were used to delineate volumes of interest (VOIs) on the PET images co-registered with the respective MRI. […] Uptake values were expressed as percentage of injected dose per gram of tissue (% ID/g).

[3] = system: DU145 (PSMA-negative) cells; experiment: In vitro uptake assay, DU145 cells; format: cell-based, human; settings: 0.5 nM, 37 °C, up to 2 h, N = 2–5 in duplicate
Method: as §1

[4] = set-up: species or system mice; settings: mouse

Molecule	maximum cellular uptake in LNCaP cells [1]	clearance route [2]	cellular uptake in DU145 cells [3]	in vivo stability [4]
O=C(O)CC[C@H](NC(=O)N[C@@H](CCCCNC(=O)CCCCCCC(=O)NCCCC[C@@H](NC(=O)[C@@H](Cc1ccccc1)NC(=O)[C@@H](Cc1ccc(O)c(I)c1)NC(=O)CCC(C(=O)O)N1CCN(CC(=O)O)CCN(CC(=O)O)CC1)C(=O)O)C(=O)O)C(=O)O (stereo partly shown) [[^61Cu]Cu-NODAGA-PSMA-I&T, metal not drawn]	13.16 ± 0.15%	clearance predominantly through the renal pathway	remained at basal levels	remarkable in vivo metabolic stability
[^61Cu]Cu-DOTAGA-PSMA-I&T	14.09 ± 0.84%	–	remained at basal levels	poor kinetic stability in vivo
